Laboratory results taken from ChEMBL document CHEMBL3751693, “Synthesis, antimicrobial evaluation and molecular modeling of 5-hydroxyisoquinolinium salt series; the effect of the hydroxyl moiety” (Bioorg Med Chem, 2016).

Columns and labels:
Nakaseomyces glabratus [1] = assay: Antimicrobial activity against Candida glabrata 20/I after 48 hrs by spectrophotometry; type: functional
Pichia kudriavzevii [2] = assay: Antimicrobial activity against Candida krusei E28 after 48 hrs by spectrophotometry; type: functional; conditions: E28, 48 h
Klebsiella pneumoniae [3] = assay: Antimicrobial activity against clinical isolate Klebsiella pneumoniae D 1175008 after 24 hrs; type: functional; conditions: D 1175008, 24 h
Lichtheimia corymbifera [4] = assay: Antimicrobial activity against Absidia corymbifera 272 after 48 hrs by spectrophotometry; type: functional; conditions: Lichtheimia corymbifera, 272, 48 h
Candida albicans [5] = assay: Antimicrobial activity against Candida albicans ATCC 44859 after 48 hrs by spectrophotometry; type: functional; conditions: ATCC 44859, 48 h
[6] = tested on: Trichophyton mentagrophytes; assay: Antimicrobial activity against Trichophyton mentagrophytes 445 after 72 hrs by spectrophotometry; type: functional; conditions: Trichophyton mentagrophytes, 445, 72 h
Escherichia coli [7] = assay: Antimicrobial activity against clinical isolate Escherichia coli CCM 4517 after 24 hrs; type: functional; conditions: CCM 4517, 24 h
Staphylococcus aureus [8] = assay: Antimicrobial activity against clinical isolate Staphylococcus aureus CCM 451608 after 24 hrs; type: functional; conditions: CCM 451608, 24 h
Staphylococcus aureus [9] = assay: Antimicrobial activity against clinical isolate methicillin-resistant Staphylococcus aureus H 599608 after 24 hrs; type: functional; conditions: H 599608, 24 h
Enterococcus sp. [10] = assay: Antimicrobial activity against clinical isolate Enterococcus sp. J 1436508 after 48 hrs; type: functional; conditions: J 1436508, 48 h
[11] = tested on: Staphylococcus epidermidis; assay: Antimicrobial activity against clinical isolate Staphylococcus epidermidis H 696608 after 48 hrs; type: functional; conditions: H 696608, 48 h
Klebsiella pneumoniae [12] = assay: Antimicrobial activity against clinical isolate Klebsiella pneumoniae D 1175008 after 48 hrs; type: functional; conditions: D 1175008, 48 h
Lichtheimia corymbifera [13] = assay: Antimicrobial activity against Absidia corymbifera 272 after 24 hrs by spectrophotometry; type: functional; conditions: Lichtheimia corymbifera, 272, 24 h
Pseudomonas aeruginosa [14] = assay: Antimicrobial activity against clinical isolate Pseudomonas aeruginosa CCM 1961 after 72 hrs; type: functional; conditions: CCM 1961, 72 h
Klebsiella pneumoniae [15] = assay: Antimicrobial activity against clinical isolate ESBL-Klebsiella pneumoniae J 1436808 after 24 hrs; type: functional; conditions: J 1436808, 24 h
[16] = Cytotoxicity against CHOK1 cells after 24 hrs by MTT assay; type: cell-based; conditions: Cricetulus griseus, CHO-K1, 24 h
[17] = tested on: Trichophyton mentagrophytes; assay: Antimicrobial activity against Trichophyton mentagrophytes 445 after 120 hrs by spectrophotometry; type: functional; conditions: Trichophyton mentagrophytes, 445, 120 h
Pichia kudriavzevii [18] = assay: Antimicrobial activity against Candida krusei E28 after 24 hrs by spectrophotometry; type: functional; conditions: E28, 24 h
Trichosporon asahii [19] = assay: Antimicrobial activity against Trichosporon asahii 1188 after 48 hrs by spectrophotometry; type: functional; conditions: Trichosporon asahii, 1188, 48 h
Candida tropicalis [20] = assay: Antimicrobial activity against Candida tropicalis 156 after 48 hrs by spectrophotometry; type: functional; conditions: Candida tropicalis, 156, 48 h
Staphylococcus aureus [21] = assay: Antimicrobial activity against clinical isolate methicillin-resistant Staphylococcus aureus H 599608 after 48 hrs; type: functional; conditions: H 599608, 48 h
Klebsiella pneumoniae [22] = assay: Antimicrobial activity against clinical isolate ESBL-Klebsiella pneumoniae J 1436808 after 48 hrs; type: functional; conditions: J 1436808, 48 h
Enterococcus sp. [23] = assay: Antimicrobial activity against clinical isolate Enterococcus sp. J 1436508 after 24 hrs; type: functional; conditions: J 1436508, 24 h
[24] = tested on: Staphylococcus epidermidis; assay: Antimicrobial activity against clinical isolate Staphylococcus epidermidis H 696608 after 24 hrs; type: functional; conditions: H 696608, 24 h
Trichosporon asahii [25] = assay: Antimicrobial activity against Trichosporon asahii 1188 after 24 hrs by spectrophotometry; type: functional; conditions: Trichosporon asahii, 1188, 24 h
Aspergillus fumigatus [26] = assay: Antimicrobial activity against Aspergillus fumigatus 231 after 48 hrs by spectrophotometry; type: functional; conditions: Aspergillus fumigatus, 231, 48 h
Nakaseomyces glabratus [27] = assay: Antimicrobial activity against Candida glabrata 20/I after 24 hrs by spectrophotometry; type: functional
Escherichia coli [28] = assay: Antimicrobial activity against clinical isolate Escherichia coli CCM 4517 after 48 hrs; type: functional; conditions: CCM 4517, 48 h
Candida albicans [29] = assay: Antimicrobial activity against Candida albicans ATCC 44859 after 24 hrs by spectrophotometry; type: functional; conditions: ATCC 44859, 24 h
Candida tropicalis [30] = assay: Antimicrobial activity against Candida tropicalis 156 after 24 hrs by spectrophotometry; type: functional; conditions: Candida tropicalis, 156, 24 h
Aspergillus fumigatus [31] = assay: Antimicrobial activity against Aspergillus fumigatus 231 after 24 hrs by spectrophotometry; type: functional; conditions: Aspergillus fumigatus, 231, 24 h
Pseudomonas aeruginosa [32] = assay: Antimicrobial activity against clinical isolate Pseudomonas aeruginosa CCM 1961 after 120 hrs; type: functional; conditions: CCM 1961, 120 h
Staphylococcus aureus [33] = assay: Antimicrobial activity against clinical isolate Staphylococcus aureus CCM 451608 after 48 hrs; type: functional; conditions: CCM 451608, 48 h

SMILES: CCCCCCCCCCCCCC[n+]1ccc2c(O)cccc2c1
- MFC (Nakaseomyces glabratus [1]): 7.8 µM
- MIC (Nakaseomyces glabratus [1]): 3.9 µM
- MFC (Pichia kudriavzevii [2]): 3.9 µM
- MIC (Pichia kudriavzevii [2]): 3.9 µM
- MIC (Klebsiella pneumoniae [3]): > 500 µM
- MFC (Lichtheimia corymbifera [4]): 125 µM
- MIC (Lichtheimia corymbifera [4]): 63 µM
- MFC (Candida albicans [5]): 63 µM
- MIC (Candida albicans [5]): 63 µM
- MIC [6]: 16 µM
- MIC (Escherichia coli [7]): > 500 µM
- MIC (Staphylococcus aureus [8]): 0.5 µM
- MIC (Staphylococcus aureus [9]): 2 µM
- MBC (Enterococcus sp. [10]): 63 µM
- MIC (Enterococcus sp. [10]): 63 µM
- MBC [11]: 7.8 µM
- MIC [11]: 3.9 µM
- MBC (Klebsiella pneumoniae [12]): > 500 µM
- MIC (Klebsiella pneumoniae [12]): > 500 µM
- MIC (Lichtheimia corymbifera [13]): 63 µM
- MIC (Pseudomonas aeruginosa [14]): > 500 µM
- MIC (Klebsiella pneumoniae [15]): > 500 µM
- IC50 [16]: 24 µM
- MFC [17]: 31 µM
- MIC [17]: 16 µM
- MIC (Pichia kudriavzevii [18]): 3.9 µM
- MFC (Trichosporon asahii [19]): 7.8 µM
- MIC (Trichosporon asahii [19]): 7.8 µM
- MFC (Candida tropicalis [20]): 7.8 µM
- MIC (Candida tropicalis [20]): 7.8 µM
- MBC (Staphylococcus aureus [21]): 2 µM
- MIC (Staphylococcus aureus [21]): 2 µM
- MBC (Klebsiella pneumoniae [22]): > 500 µM
- MIC (Klebsiella pneumoniae [22]): 500 µM
- MIC (Enterococcus sp. [23]): 63 µM
- MIC [24]: 3.9 µM
- MIC (Trichosporon asahii [25]): 7.8 µM
- MFC (Aspergillus fumigatus [26]): 125 µM
- MIC (Aspergillus fumigatus [26]): 31 µM
- MIC (Nakaseomyces glabratus [27]): 3.9 µM
- MBC (Escherichia coli [28]): > 500 µM
- MIC (Escherichia coli [28]): > 500 µM
- MIC (Candida albicans [29]): 63 µM
- MIC (Candida tropicalis [30]): 7.8 µM
- MIC (Aspergillus fumigatus [31]): 31 µM
- MBC (Pseudomonas aeruginosa [32]): > 500 µM
- MIC (Pseudomonas aeruginosa [32]): > 500 µM
- MBC (Staphylococcus aureus [33]): 1 µM
- MIC (Staphylococcus aureus [33]): 0.5 µM

SMILES: CCCCCCCCCCCC[N+](C)(C)Cc1ccccc1
- MFC (Nakaseomyces glabratus [1]): 0.5 µM
- MIC (Nakaseomyces glabratus [1]): 0.5 µM
- MFC (Pichia kudriavzevii [2]): 0.5 µM
- MIC (Pichia kudriavzevii [2]): 0.5 µM
- MIC (Klebsiella pneumoniae [3]): 0.5 µM
- MFC (Lichtheimia corymbifera [4]): 7.8 µM
- MIC (Lichtheimia corymbifera [4]): 7.8 µM
- MFC (Candida albicans [5]): 1 µM
- MIC (Candida albicans [5]): 0.5 µM
- MIC [6]: 1 µM
- MIC (Escherichia coli [7]): 0.5 µM
- MIC (Staphylococcus aureus [8]): 0.5 µM
- MIC (Staphylococcus aureus [9]): 0.5 µM
- MBC (Enterococcus sp. [10]): 1 µM
- MIC (Enterococcus sp. [10]): 1 µM
- MBC [11]: 0.5 µM
- MIC [11]: 0.5 µM
- MBC (Klebsiella pneumoniae [12]): 0.5 µM
- MIC (Klebsiella pneumoniae [12]): 0.5 µM
- MIC (Lichtheimia corymbifera [13]): 7.8 µM
- MIC (Pseudomonas aeruginosa [14]): 3.9 µM
- MIC (Klebsiella pneumoniae [15]): 1 µM
- IC50 [16]: 29 µM
- MFC [17]: 2 µM
- MIC [17]: 1 µM
- MIC (Pichia kudriavzevii [18]): 0.5 µM
- MFC (Trichosporon asahii [19]): 2 µM
- MIC (Trichosporon asahii [19]): 2 µM
- MFC (Candida tropicalis [20]): 1 µM
- MIC (Candida tropicalis [20]): 0.5 µM
- MBC (Staphylococcus aureus [21]): 1 µM
- MIC (Staphylococcus aureus [21]): 0.5 µM
- MBC (Klebsiella pneumoniae [22]): 1 µM
- MIC (Klebsiella pneumoniae [22]): 1 µM
- MIC (Enterococcus sp. [23]): 0.5 µM
- MIC [24]: 0.5 µM
- MIC (Trichosporon asahii [25]): 0.5 µM
- MFC (Aspergillus fumigatus [26]): 3.9 µM
- MIC (Aspergillus fumigatus [26]): 3.9 µM
- MIC (Nakaseomyces glabratus [27]): 0.5 µM
- MBC (Escherichia coli [28]): 2 µM
- MIC (Escherichia coli [28]): 2 µM
- MIC (Candida albicans [29]): 0.5 µM
- MIC (Candida tropicalis [30]): 0.5 µM
- MIC (Aspergillus fumigatus [31]): 1 µM
- MBC (Pseudomonas aeruginosa [32]): 7.8 µM
- MIC (Pseudomonas aeruginosa [32]): 3.9 µM
- MBC (Staphylococcus aureus [33]): 2 µM
- MIC (Staphylococcus aureus [33]): 2 µM

SMILES: CCCCCCCCCC[n+]1ccc2ccccc2c1
- MFC (Nakaseomyces glabratus [1]): 31 µM
- MIC (Nakaseomyces glabratus [1]): 7.8 µM
- MFC (Pichia kudriavzevii [2]): 2 µM
- MIC (Pichia kudriavzevii [2]): 0.5 µM
- MIC (Klebsiella pneumoniae [3]): 63 µM
- MFC (Lichtheimia corymbifera [4]): > 500 µM
- MIC (Lichtheimia corymbifera [4]): > 500 µM
- MFC (Candida albicans [5]): 63 µM
- MIC (Candida albicans [5]): 16 µM
- MIC [6]: 63 µM
- MIC (Escherichia coli [7]): 63 µM
- MIC (Staphylococcus aureus [8]): 16 µM
- MIC (Staphylococcus aureus [9]): 31 µM
- MBC (Enterococcus sp. [10]): 125 µM
- MIC (Enterococcus sp. [10]): 63 µM
- MBC [11]: 16 µM
- MIC [11]: 2 µM
- MBC (Klebsiella pneumoniae [12]): 125 µM
- MIC (Klebsiella pneumoniae [12]): 63 µM
- MIC (Lichtheimia corymbifera [13]): > 500 µM
- MIC (Pseudomonas aeruginosa [14]): > 500 µM
- MIC (Klebsiella pneumoniae [15]): 250 µM
- IC50 [16]: 41 µM
- MFC [17]: 125 µM
- MIC [17]: 63 µM
- MIC (Pichia kudriavzevii [18]): 0.5 µM
- MFC (Trichosporon asahii [19]): 250 µM
- MIC (Trichosporon asahii [19]): 250 µM
- MFC (Candida tropicalis [20]): 7.8 µM
- MIC (Candida tropicalis [20]): 3.8 µM
- MBC (Staphylococcus aureus [21]): 125 µM
- MIC (Staphylococcus aureus [21]): 31 µM
- MBC (Klebsiella pneumoniae [22]): 500 µM
- MIC (Klebsiella pneumoniae [22]): 250 µM
- MIC (Enterococcus sp. [23]): 63 µM
- MIC [24]: 2 µM
- MIC (Trichosporon asahii [25]): 250 µM
- MFC (Aspergillus fumigatus [26]): > 500 µM
- MIC (Aspergillus fumigatus [26]): 500 µM
- MIC (Nakaseomyces glabratus [27]): 7.8 µM
- MBC (Escherichia coli [28]): 125 µM
- MIC (Escherichia coli [28]): 63 µM
- MIC (Candida albicans [29]): 16 µM
- MIC (Candida tropicalis [30]): 3.9 µM
- MIC (Aspergillus fumigatus [31]): 500 µM
- MBC (Pseudomonas aeruginosa [32]): > 500 µM
- MIC (Pseudomonas aeruginosa [32]): > 500 µM
- MBC (Staphylococcus aureus [33]): 31 µM
- MIC (Staphylococcus aureus [33]): 16 µM
